These results are taken from article PMC9654711, “Neuroprotective Action of Coumarin Derivatives through Activation of TRKB-CREB-BDNF Pathway and Reduction of Caspase Activity in Neuronal Cells Expressing Pro-Aggregated Tau Protein” (International Journal of Molecular Sciences, 2022).

What all share (format): cell-based, human
The test system of one assay is CREB. Nature of the assay: Immunoblot of CREB. The conditions noted are these: 10 µM; induced untreated 83%. Here is the method: (§1) ∆K280 tauRD-DsRed SH-SY5Y cells in 6-well plates (5 × 10^5/well) were treated with retinoic acid (10 µM) on day 1, followed by LMDS-1 or -2 (10 µM) and doxycycline (2 µg/mL) addition on day 2 as described. ERK inhibitor U0126 or PI3K inhibitor wortmannin (10 μM) (LC Laboratories, Woburn, MA, USA) was added on day 6. On day 8, the cells were collected for BDNF, BCL2, BAX and total/phosphorylated TRKB, ERK, AKT, CREB protein analyses as described.
(§2) ∆K280 tauRD-DsRed SH-SY5Y cells were lysed in buffer containing 50 mM Tris-HCl (pH 8.0), 150 mM NaCl, 1 mM EDTA (pH 8.0), 1 mM EGTA (pH 8.0), 0.1% SDS, 0.5% sodium deoxycholate, 1% Triton X-100 and protease (Sigma-Aldrich)/phosphatase (Roche, Basel, Switzerland) inhibitor cocktails. After two sonications with an interval of 30 min on ice, cell lysates were collected by centrifugation at 14,000× g for 30 min at 4 °C. Protein concentrations were determined using a Bradford assay (Bio-Rad, Hercules, CA, USA). Protein samples (25 µg) were separated by 10–12% SDS-PAGE and transferred to polyvinylidene difluoride (PVDF) membranes (Sigma-Aldrich). […] After three washes with TBST, the immune complexes were detected using horseradish peroxidase-conjugated goat anti-mouse or goat anti-rabbit secondary IgG antibody (1:5000, GeneTex, Irvine, CA, USA) and enhanced chemiluminescence substrates luminol and peroxide (Millipore). […]
For orientation: In western blotting, separated proteins are transferred to a membrane and probed.

The subject of the next assay is p-AKT (S473). Nature of the assay: Immunoblot of p-AKT (S473). Here is the method: as §1
∆K280 tauRD-DsRed SH-SY5Y cells were lysed in buffer containing 50 mM Tris-HCl (pH 8.0), 150 mM NaCl, 1 mM EDTA (pH 8.0), 1 mM EGTA (pH 8.0), 0.1% SDS, 0.5% sodium deoxycholate, 1% Triton X-100 and protease (Sigma-Aldrich)/phosphatase (Roche, Basel, Switzerland) inhibitor cocktails. After two sonications with an interval of 30 min on ice, cell lysates were collected by centrifugation at 14,000× g for 30 min at 4 °C. Protein concentrations were determined using a Bradford assay (Bio-Rad, Hercules, CA, USA). Protein samples (25 µg) were separated by 10–12% SDS-PAGE and transferred to polyvinylidene difluoride (PVDF) membranes (Sigma-Aldrich). After blocking for 2 h with 10% skimmed milk or 5% BSA in 0.1% Tween 20 in Tris-buffered saline (TBST), the membrane was incubated with primary antibody against BDNF (1:500; Santa Cruz, Santa Cruz, CA, USA), BCL2 (1:500; BioVision), BAX (1:500; BioVision), TRKB (1:1000; Cell Signaling, Danvers, MA, USA), p-TRKB (Y516) (1:1000; Cell Signaling), p-TRKB (Y817) (1:1000; Millipore, Billerica, MA, USA), ERK (1:1000; Cell Signaling), p-ERK (T202/Y204) (1:500; Cell Signaling), AKT (1:1000; Cell Signaling), p-AKT (S473) (1:1000; Cell Signaling), CREB (1:1000; Santa Cruz), p-CREB (S133) (1:1000; Millipore), JNK (1:1000; Cell Signaling), p-JNK (T183/Y185) (1:1000; Cell Signaling) or loading control glyceraldehyde-3-phosphate dehydrogenase (GAPDH) (1:1000; MDBio, Taipei, Taiwan). After three washes with TBST, the immune complexes were detected using horseradish peroxidase-conjugated goat anti-mouse or goat anti-rabbit secondary IgG antibody (1:5000, GeneTex, Irvine, CA, USA) and enhanced chemiluminescence substrates luminol and peroxide (Millipore). The primary and secondary antibodies used were diluted with TBST. The chemiluminescent detection was performed on ImageQuant™ LAS 4000mini (GE Healthcare).

Assay [1] has as its system ΔK280 tauRD-DsRed SH-SY5Y folding reporter cells. Nature of the assay: High-content analysis of ΔK280 tauRD-DsRed fluorescence and cell number (folding reporter). The conditions noted are these: BDNF at 100 ng/mL, LMDS-1/2 at 10 μM; untreated = 100%; Figure 6A. Here is the method:
On day 1, ∆K280 tauRD-DsRed SH-SY5Y cells were seeded in a 96-well plate (3 × 10^4/well), with retinoic acid (10 µM; Sigma-Aldrich) added to induce neuronal differentiation. […] […] For ROS measurement, dichloro-dihydro-fluorescein diacetate (DCFH-DA, 10 µM; Invitrogen, Carlsbad, CA, USA) was added to the cells on day 8 and incubated at 37 °C for 30 min.

A further assay has as its system pro-BDNF (31 kDa). Nature of the assay: Immunoblot of pro-BDNF. The conditions noted are these: 10 µM; induced untreated 62%. The procedure:
as §1, §2

Another assay relates to BCL2. Nature of the assay: Immunoblot of BCL2. The conditions noted are these: 10 µM; induced untreated 73%. Here is the method: as §1, §2

As for `CCOc1ccc2cc(C(=O)c3ccccc3)c(=O)oc2c1` [LMDS-1], in the assay with CREB, the CREB level is given as 98–101%. Besides, the p-AKT level is reported as 62–64% in the assay with p-AKT (S473) (10 µM plus wortmannin 10 μM) and 96–100% in the assay on p-AKT (S473) (10 µM, induced untreated 72%). Moreover, the DsRed fluorescence intensity in assay [1] is 111–112%. In addition, the pro-BDNF level in the assay with pro-BDNF (31 kDa) is on record as 94–99%. The BCL2 level in the assay on BCL2 is recorded as 111–114%.
Turning to `O=C(c1ccccc1)c1cc2ccc(O)cc2oc1=O` [LMDS-2], the CREB level in the assay on CREB is given as 98–101%. Also, the p-AKT level is on record as 62–64% in the assay on p-AKT (S473) (10 µM plus wortmannin 10 μM) and 96–100% in the assay on p-AKT (S473) (10 µM, induced untreated 72%). In addition, the DsRed fluorescence intensity in assay [1] is given as 111–112%. The pro-BDNF level in the assay on pro-BDNF (31 kDa) is on record as 94–99%. Besides, the BCL2 level in the assay with BCL2 is 111–114%.
